{"source": "patent US20230404969A1", "about": "“COMPOSITIONS AND METHOD FOR EFFECTIVE MANAGEMENT OF PERITONITIS” (priority 2022, published 2023)", "key": {"TNF-α": {"system": "TNF-α", "experiment": "Extracellular in vivo TNF-α estimation in serum from treated mice after LPS injection (ELISA)", "conditions": "1 mg/kg p.o for 6 days, serum 90 mins after LPS injection, ↑ upregulation", "method": "BALM male mice aged 6-8 weeks were maintained at 22±2° C. under 12/12 h light dark cycle. Mice received oral treatment of test drugs at graded doses (w/v) for 6 days, followed by intravenous injection of 1 mg/kg (Brieva et al. Immunoferon, a glycoconjugate of natural origin, inhibits LPS-induced TNF-α production and inflammatory responses. International Immunopharmacology (2001) 1, 1979-1987). Six mice were employed in each group and experiments were performed in triplicates. Blood was collected from retro-orbital plexus of the experimental animals and serum was separated. TNF-α, IL-1β production was evaluated by a commercial ELISA kit in serum from treated mice, 90 mins after LPS injection."}, "C3b": {"system": "C3b", "experiment": "Complement activation product C3b in serum (ELISA), chronic zymosan peritonitis", "format": "in vivo, mouse", "conditions": "2 mg/kg", "method": "(§1) Peritoneal inflammation was induced by Zymosan A (Sigma Chemical) (Masashi et al. Zymosan, but Not Lipopolysaccharide, Triggers Severe and Progressive Peritoneal Injury Accompanied by complement Activation in a Rat Peritonitis Model) was prepared freshly in sterile, 0.9% w/v saline, and 0.5 ml was injected i.p. from day 0 to Day 5. The lymphocyte population in the peripheral blood was determined with a flow cytometer. Cells were phenotyped by flow cytometry with the following primary antibodies: CD4 (FITC) and CD8 (PE). Cells were gated broadly on all live lymphocyte cells, with only debris and multiple cell clusters being excluded. Analysis of mean fluorescence intensity was done and percentage cell population was evaluated. The test drugs were administered for 30 days after the induction of peritonitis. On 36th day the peritoneal cavity was lavaged with 1.5 ml saline, and after a 30-s gentle manual massage, 0.5 ml exudate was retrieved, centrifuged at 3000 g for 3 min, and frozen at 220° C. prior to cytokine and chemotactic-factor assessment.\nComplement activation is a system of more than 30 proteins in the plasma and on cell surfaces. The activation takes place by three pathways, classical, lectin, and alternative. […]"}, "CD4+ T cells": {"system": "CD4+ T cells", "experiment": "Zymosan peritonitis chronic study: peripheral blood CD4+ T cell population (flow cytometry)", "format": "in vivo, mouse", "conditions": "Withanone 2 mg/kg, day 36", "method": "as §1, with “On 36th day the peritoneal cavity was lavaged with 1.5 ml saline, and after a 30-s gentle manual massage, 0.5 ml exudate was retrieved, centrifuged at 3000 g for 3 min, and frozen at 220° C. prior to cytokine and chemotactic-factor assessment.” left out\nFlow cytometry enables the characterization of cells and subcellular organelles on the basis of size and granularity and a number of different parameters defined by fluorescent probes. […] Fluorochrome labelled monoclonal antibodies directed against co-receptors CD4 and CD8 were used to quantify the lymphocyte subsets in a multiparametric flow cytometric assay. […]"}, "E. Coli (Gram-negative)": {"system": "E. Coli (Gram-negative)", "experiment": "Bacterial translocation from the gut into organs: E. coli", "format": "in vivo", "conditions": "Withanone 2 mg/kg; positive/6 mice", "method": "as §1\n(§2) Intestine serves as a barrier in preventing gut bacteria and/or endotoxin from spreading to organs and tissues. It is also known that bacterial translocation occurs in critically ill or immunocompromised patients, and the physical disruption of mucosal barrier in vivo rodent models seem to be a key factor Tor translocation (Deitch et al. Effect of hemorrhagic shock on bacterial translocation, intestinal morphology, and intestinal permeability in conventional and antibiotic-decontaminated rats; Critical Care Medicine; 1990 18(5)). Bacterial translocation from the gut into the peritoneal cavity and organs was analyzed. The mesenteric lymph nodes, liver, and spleen of mice, study group of 30, were removed using sterile instruments. The organs were then homogenized in 1 ml of sterile cooked meat broth and 50 μl of organ homogenate was spread on blood agar plates to detect aerobic bacteria and Eosin Methylene blue agar plates to detect specially for E. coli. These plates were then incubated at 37° C. for 2 days. […]"}, "[1]": {"system": "Enterococcus faecalis (Gram positive)", "experiment": "Bacterial translocation from the gut into organs: E. faecalis", "format": "in vivo", "conditions": "Withanone 2 mg/kg; positive/6 mice", "method": "as §1, §2"}}, "data": [{"smiles": "CC1=C(C)C(=O)O[C@@H]([C@@H](C)[C@@]2(O)CC[C@H]3[C@@H]4[C@@H]5O[C@@H]5[C@@]5(O)CC=CC(=O)[C@]5(C)[C@H]4CC[C@@]32C)C1", "note": "[Withanone]", "values": [{"measurement": "Percentage TNF-α inhibition compared to LPS control", "setting": "TNF-α", "result": 37.05, "unit": "%"}, {"measurement": "Inhibition of complement activation product C3b compared to the Zymosan control", "setting": "C3b", "result": 44, "unit": "%"}, {"measurement": "Inhibition of CD4+ compared to T cell population of Zymosan control", "setting": "CD4+ T cells", "result": 46, "unit": "%"}, {"measurement": "Bacterial translocation, Liver, E. coli", "setting": "E. Coli (Gram-negative)", "result": "1/6"}, {"measurement": "Bacterial translocation, Mesenteric Lymph Nodes, E. coli", "setting": "E. Coli (Gram-negative)", "result": "2/6"}, {"measurement": "Bacterial translocation, Spleen, E. coli", "setting": "E. Coli (Gram-negative)", "result": "1/6"}, {"measurement": "Bacterial translocation, Liver, E. faecalis", "setting": "[1]", "result": "1/6"}, {"measurement": "Bacterial translocation, Mesenteric Lymph Nodes, E. faecalis", "setting": "[1]", "result": "2/6"}, {"measurement": "Bacterial translocation, Spleen, E. faecalis", "setting": "[1]", "result": "0/6"}]}]}
